Experimental data published in PMC9916441, “Resveratrol Derivative Exhibits Marked Antiproliferative Actions, Affecting Stemness in Pancreatic Cancer Cells” (International Journal of Molecular Sciences, 2023).
pIC50: −log10 of the molar value. Where two headings read alike, the source gives them in different places.

Columns and labels:
Capan-2 [1] = test: MTT cell viability assay; type: cell-based, human
Method: (§1) The cell viability was assessed using MTT assay, as previously described. Briefly, the cells were seeded in 96-well plates (4 × 10^3 cells/well) and were treated for 72 h with different concentrations of RSV, DF5, and DF12. The IC50 values were extrapolated from dose–response curves and calculated using the CompuSyn software (https://www.combosyn.com/). The selectivity index (SI) values were calculated as ratios between the IC50 values of compounds in normal HFF-1 fibroblast cells and the IC50 values of the same compounds in the PC cell lines.

AsPC-1 [2] = test: MTT cell viability assay; type: cell-based, human
Method: as §1

BxPC-3 [3] = test: MTT cell viability assay; type: cell-based, human
Method: as §1

Capan-2 [4] = test: Flow cytometry immunophenotyping of CD133+EpCAM+ cancer stem-like subpopulation; type: cell-based, human; settings: Capan-2, 20 μM, 72 h
Method: (§2) The expression of CD133 and EpCAM surface antigens was evaluated using flow cytometry. Briefly, the PC cells were seeded in 6-well plates and treated for 72 h with 20 μM DF5, RSV, or with vehicle (DMSO). After treatment, the cells were collected in PBS and stained at room temperature in the dark for 30 min with PE-CD133, FITC-EpCAM antibodies, and Reactive Dye. After labeling, the samples were washed in PBS by centrifugation at 1500 rpm for 10 min, to remove excess antibodies. Flow cytometer performance, stability, and data reproducibility were daily checked by using the CS&T quality control Module (BD Biosciences). The gating strategy and the evaluation of non-specific fluorescence was determined using fluorescence minus one (FMO) controls. The data were acquired with FACSVerse analyzer equipped with a volumetric count module (BD Biosciences, San Jose, CA, USA) and are expressed as the percentage of positive cells.

AsPC-1 [5] = test: as above; type: cell-based, human; settings: AsPC-1, 20 μM, 72 h
Method: as §2

BxPC-3 [6] = test: as above; type: cell-based, human; settings: BxPC-3, 20 μM, 72 h
Method: as §2

[7] = tested on: normal HFF-1 fibroblast cells; test: MTT cell viability assay on normal fibroblasts; type: cell-based, human; settings: 72 h
Method: as §1

Water solubility = type: physicochemical
Method: The solubility was determined as previously described. The calculated LogP (cLogP) value was determined using ACD LogP software package, version 4.55 (Advanced Chemistry Development Inc., Toronto, ON, Canada).

[8] = Enzymatic stability in simulated intestinal fluid (SIF) with pancreatin; type: in vitro ADME; settings: SIF pH 6.8 with pancreatin, 37 °C
Method: The SGF and SIF, containing pepsin and pancreatin, respectively, were prepared following the USP specifications. The reactions were carried out in a shaking water bath at 37 °C. The drug stock solution (10 μL of a 10^−4 M) was added to the preheated gastrointestinal fluids and, at fixed time points (0, 15, 30, and 60 min for SGF and 0, 60, 120, and 180 min for SIF), 20 μL of the media were mixed with 200 μL of cold acetonitrile containing 0.5% v/v of formic acid. The samples were centrifuged for 10 min at 5000× g and the supernatants were analyzed using HPLC. The relative difference (RD%) was used to predict the amount of compound decomposed in the presence of gastrointestinal fluids.

Cyclin D3 = test: Western blot of cyclin D3 in PC cell lines; type: cell-based, human; settings: 50 μM
Method: The PC cell lines treated with 50 μM DF5, RSV, or with vehicle (DMSO) were lysed in a cell lysis buffer containing PMSF, protease inhibitors cocktails, and phosphatase inhibitors. The protein lysate quantification and immunoblot analyses were performed as previously described.

pIC50 (AsPC-1 [2]; Homo sapiens, ASPC1, AsPC-1, MTT, 72 h): 4.83
pIC50 (BxPC-3 [3]; Homo sapiens, BxPC-3, MTT, 72 h): 4.64
solubility (Water solubility; read-out: Classification (water solubility)): < 100 µg/mL
solubility (Water solubility; read-out: Water Solubility): < 10 µg/mL
RD% (relative difference) ([8]; 60 min): 8.12%
RD% (relative difference) ([8]; 120 min): 9.20%
RD% (relative difference) ([8]; 180 min): 9.36%
SMILES: Cc1ccc(/C=C/c2ccc(O)cc2)cc1 [DF5]
effect on cell viability at maximum tested concentration (Capan-2 [1]; Capan-2, MTT, 100 µM): almost complete loss of cell viability
pIC50 (Capan-2 [1]; Homo sapiens, Capan-2, MTT, 72 h): 4.56
Selectivity Index (SI) Capan-2 (Capan-2 [1]; SI = IC50 on normal HFF-1 fibroblast cells/IC50 on Capan-2): > 3.60
Selectivity Index (SI) AsPC-1 (AsPC-1 [2]; SI = IC50 on normal HFF-1 fibroblast cells/IC50 on AsPC-1): > 6.79
Selectivity Index (SI) BxPC-3 (BxPC-3 [3]; SI = IC50 on normal HFF-1 fibroblast cells/IC50 on BxPC-3): > 4.41
effect on percentage of CD133+EpCAM+ cancer stem-like subpopulation (Capan-2 [4]): sharp and statistically significant reduction
effect on percentage of CD133+EpCAM+ cancer stem-like subpopulation (AsPC-1 [5]): sharp and statistically significant reduction
effect on percentage of CD133+EpCAM+ cancer stem-like subpopulation (BxPC-3 [6]): statistically significant impact
toxicity against normal HFF-1 fibroblast cells ([7]; up to 100 μM): negligible toxicity
pIC50 ([7]; Homo sapiens, normal HFF-1 fibroblasts, 100 μM highest concentration used): < 4.00
effect on cyclin D3 expression (Cyclin D3): clear-cut reduction or even an abolishment in the expression of cyclin D3
